Tests used:
Crabgrass (CG) [1] = test: Post-emergence herbicide test; type: in vivo, Digitaria sanquinalis; details: Digitaria sanguinalis, post-emergence, 336 h, two weeks after treatment; for pest or weed control: 2 lb/acre; for pest or weed control at 4483.4 g/ha: 4 lb/acre; for pest or weed control at 8966.8 g/ha: 8 lb/acre
Method: (§1) Crabgrass (CG)--Digitaria sanquinalis
(§2) All crop and weed species were planted individually in 3' plastic pots containing potting soil. Four seeds each of corn, cotton, and snapbeans were seeded to a depth equal to the diameter of the seed. All other species were surface seeded and sprinkled with screened soil in an amount sufficient to cover the seed. Immediately after planting, all pots were watered by sub-irrigation in greenhouse trays. Pots for the pre-emergence phase were seeded one day before treatment.
(§3) Planting dates for the post-emergence phase were varied so that all seedlings would reach the desired stage of development simultaneously. The proper stage of seedling development for treatment in the post-emergence phase is as follows:
(§4) Spray hood constants required to deliver the above volume are as follows:
(§5) Formulations for spray applications were prepared in 50 ml volumes with the following three components: […]
(§6) Spray applications were made in a hood containing a removable belt and fixed spray nozzle. For passage through the spray hood, one pot of each specie (pre-emergence phase) was placed on the rear half of the flat. Treatments were removed to the greenhouse after spraying. Watering during the observation period was done only by sub-irrigation.
(§7) Two weeks after treatment, pre- and post-emergence injury or control was visually rated, and the results were as shown in the following tables. Pre-emergence data are provided in TABLE III and post-emergence data are provided in TABLE IV, for compounds having the formula illustrated in TABLE I. Correspondingly, pre-emergence and post-emergence data, respectively, are set forth in TABLES V AND VI, for compounds having the formula illustrated in TABLE II.

Bean (BN) [2] = test: Post-emergence herbicide test; type: in vivo, Phaseolus vulgaris var. Black Valentine; details: Phaseolus vulgaris, post-emergence, 336 h, two weeks after treatment; for pest or weed control at 2241.7 g/ha: 2 lb/acre; for pest or weed control at 4483.4 g/ha: 4 lb/acre; for pest or weed control at 8966.8 g/ha: 8 lb/acre
Method: (§8) Bean (BN)--Phaseolus vulgaris var. Black Valentine
as §2, §3
Beans: primary leaves expanded, growing point at primary leaf nodes.
as §4
(§9) Formulations for spray applications were prepared in 50 ml volumes with the following three components:
(§10) Formulations for the 4 lbs/acre rate were prepared by adjusting the amount of active ingredient accordingly.
as §6, §7

Cotton (CT) [3] = test: Post-emergence herbicide test; type: in vivo, Gossypium hirsutum var. DPL smooth leaf; details: Gossypium hirsutum, post-emergence, 336 h, two weeks after treatment; for pest or weed control at 2241.7 g/ha: 2 lb/acre; for pest or weed control at 4483.4 g/ha: 4 lb/acre; for pest or weed control at 8966.8 g/ha: 8 lb/acre
Method: (§11) Cotton (CT)--Gossypium hirsutum var. DPL smooth leaf
as §2, §3
Cotton: first true leaf 1' in length; expanded cotyledons.
as §4, §9, §10, §6, §7

Crabgrass (CG) [4] = test: Pre-emergence herbicide test; type: in vivo, Digitaria sanquinalis; details: Digitaria sanguinalis, pre-emergence, 336 h, two weeks after treatment; for pest or weed control: 2 lb/acre; for pest or weed control at 4483.4 g/ha: 4 lb/acre; for pest or weed control at 8966.8 g/ha: 8 lb/acre
Method: as §1, §2, §4, §5, §6, §7

Corn (CN) [5] = test: Pre-emergence herbicide test; type: in vivo; details: Zea mays, 336 h, two weeks after treatment; for pest or weed control at 2241.7 g/ha: 2 lb/acre; for pest or weed control at 4483.4 g/ha: 4 lb/acre; for pest or weed control at 8966.8 g/ha: 8 lb/acre
Method: as §2
(§12) Compounds were tested at rates of application equivalent to 8 lbs. of actual compound per acre in a spray volume of 38 gallons per acre. Spray hood constants required to deliver the above volume are as follows:
as §9, §10, §6, §7

Bean (BN) [6] = test: Pre-emergence herbicide test; type: in vivo, Phaseolus vulgaris var. Black Valentine; details: Phaseolus vulgaris, 336 h, two weeks after treatment; for pest or weed control at 2241.7 g/ha: 2 lb/acre; for pest or weed control at 4483.4 g/ha: 4 lb/acre; for pest or weed control at 8966.8 g/ha: 8 lb/acre
Method: as §8, §2, §12, §9, §10, §6, §7

Johnson grass (JG) [7] = test: Pre-emergence herbicide test; type: in vivo, Sorgum helepense; details: Sorghum halepense, 336 h, two weeks after treatment; for pest or weed control at 2241.7 g/ha: 2 lb/acre; for pest or weed control at 4483.4 g/ha: 4 lb/acre; for pest or weed control at 8966.8 g/ha: 8 lb/acre
Method: (§13) Johnson grass (JG)--Sorgum helepense
as §2, §12, §9, §10, §6, §7

Cotton (CT) [8] = test: Pre-emergence herbicide test; type: in vivo, Gossypium hirsutum var. DPL smooth leaf; details: Gossypium hirsutum, 336 h, two weeks after treatment; for pest or weed control at 2241.7 g/ha: 2 lb/acre; for pest or weed control at 4483.4 g/ha: 4 lb/acre; for pest or weed control at 8966.8 g/ha: 8 lb/acre
Method: as §11, §2, §12, §9, §10, §6, §7

Barnyard grass (BG) [9] = test: Post-emergence herbicide test; type: in vivo; details: Echinochloa crus-galli, 336 h, two weeks after treatment; for pest or weed control at 4483.4 g/ha: 4 lb/acre; for pest or weed control at 8966.8 g/ha: 8 lb/acre
Method: (§14) Barnyard grass (BG)--Echinochloa crus-galli
as §2, §3, §12, §9, §10, §6, §7

Barnyard grass (BG) [10] = test: Pre-emergence herbicide test; type: in vivo; details: Echinochloa crus-galli, 336 h, two weeks after treatment; for pest or weed control at 2241.7 g/ha: 2 lb/acre; for pest or weed control at 4483.4 g/ha: 4 lb/acre; for pest or weed control at 8966.8 g/ha: 8 lb/acre
Method: as §14, §2, §12, §9, §10, §6, §7

Turnip (TP) [11] = test: Pre-emergence herbicide test; type: in vivo, Brassica sp.; details: Brassica rapa, pre-emergence, 336 h, two weeks after treatment; for pest or weed control at 2241.7 g/ha: 2 lb/acre; for pest or weed control at 4483.4 g/ha: 4 lb/acre; for pest or weed control at 8966.8 g/ha: 8 lb/acre
Method: (§15) Turnip (TP)--Brassica sp.
as §2, §4, §5, §6, §7

Turnip (TP) [12] = test: Post-emergence herbicide test; type: in vivo, Brassica sp.; details: Brassica rapa, post-emergence, 336 h, two weeks after treatment; for pest or weed control at 2241.7 g/ha: 2 lb/acre; for pest or weed control at 4483.4 g/ha: 4 lb/acre; for pest or weed control at 8966.8 g/ha: 8 lb/acre
Method: as §15, §2, §3
Pigweed and turnips: 1 or 2 true leaves above visible cotyledons.
as §4, §5, §6, §7

Johnson grass (JG) [13] = test: Post-emergence herbicide test; type: in vivo, Sorgum helepense; details: Sorghum halepense, 336 h, two weeks after treatment; for pest or weed control at 4483.4 g/ha: 4 lb/acre; for pest or weed control at 8966.8 g/ha: 8 lb/acre
Method: as §13, §2, §3, §12, §9, §10, §6, §7

Corn (CN) [14] = test: Post-emergence herbicide test; type: in vivo; details: Zea mays, 336 h, two weeks after treatment; for pest or weed control: 2 lb/acre; for pest or weed control at 4483.4 g/ha: 4 lb/acre; for pest or weed control at 8966.8 g/ha: 8 lb/acre
Method: as §2, §3, §12, §9, §10, §6, §7

SMILES | pest or weed control (Crabgrass (CG) [1]) | pest or weed control at 2241.7 g/ha (Bean (BN) [2]) | pest or weed control at 2241.7 g/ha (Cotton (CT) [3]) | pest or weed control (Crabgrass (CG) [4]) | pest or weed control at 2241.7 g/ha (Corn (CN) [5]) | pest or weed control at 2241.7 g/ha (Bean (BN) [6]) | pest or weed control at 8966.8 g/ha (Crabgrass (CG) [1]) | pest or weed control at 8966.8 g/ha (Bean (BN) [2]) | pest or weed control at 8966.8 g/ha (Cotton (CT) [3]) | pest or weed control at 8966.8 g/ha (Crabgrass (CG) [4]) | pest or weed control at 8966.8 g/ha (Corn (CN) [5]) | pest or weed control at 8966.8 g/ha (Bean (BN) [6]) | pest or weed control at 8966.8 g/ha (Johnson grass (JG) [7]) | pest or weed control at 8966.8 g/ha (Cotton (CT) [8]) | pest or weed control at 8966.8 g/ha (Barnyard grass (BG) [9]) | pest or weed control at 8966.8 g/ha (Barnyard grass (BG) [10]) | pest or weed control at 8966.8 g/ha (Turnip (TP) [11]) | pest or weed control at 8966.8 g/ha (Turnip (TP) [12]) | pest or weed control at 8966.8 g/ha (Johnson grass (JG) [13]) | pest or weed control at 8966.8 g/ha (Corn (CN) [14]) | also measured
CCCSc1nnc(NC(=O)NC)s1 [Example 41, 1-Methyl-3-[5-n-Propylthio-2-(1,3,4-Thiadiazolyl)]Urea] | 100% | 70% | 100% | 90% | 10% | 30% |  |  |  |  |  |  |  |  |  |  |  |  |  |  | pest or weed control at 2241.7 g/ha (Johnson grass (JG) [7]): 70%; pest or weed control at 2241.7 g/ha (Cotton (CT) [8]): 50%; pest or weed control at 2241.7 g/ha (Barnyard grass (BG) [9]; 2 lb/acre): 90%; pest or weed control at 2241.7 g/ha (Barnyard grass (BG) [10]): 50%; pest or weed control at 2241.7 g/ha (Turnip (TP) [11]): 60%; pest or weed control at 2241.7 g/ha (Turnip (TP) [12]): 70%; pest or weed control (Johnson grass (JG) [13]; 2 lb/acre): 90%; pest or weed control (Corn (CN) [14]): 100%
CCCS(=O)(=O)c1nnc(NC(=O)NC)s1 [Example 62] | 100% | 100% | 90% | 90% | 0% | 60% |  |  |  |  |  |  |  |  |  |  |  |  |  |  | pest or weed control at 4483.4 g/ha (Crabgrass (CG) [1]): 100%; pest or weed control at 4483.4 g/ha (Bean (BN) [2]): 100%; pest or weed control at 4483.4 g/ha (Cotton (CT) [3]): 100%; pest or weed control at 4483.4 g/ha (Crabgrass (CG) [4]): 90%; pest or weed control at 4483.4 g/ha (Corn (CN) [5]): 0%; pest or weed control at 4483.4 g/ha (Bean (BN) [6]): 50%; pest or weed control at 2241.7 g/ha (Johnson grass (JG) [7]): 40%; pest or weed control at 4483.4 g/ha (Johnson grass (JG) [7]): 40%; pest or weed control at 2241.7 g/ha (Cotton (CT) [8]): 100%; pest or weed control at 4483.4 g/ha (Cotton (CT) [8]): 100%; pest or weed control at 4483.4 g/ha (Barnyard grass (BG) [9]): 80%; pest or weed control at 2241.7 g/ha (Barnyard grass (BG) [10]): 60%; pest or weed control at 4483.4 g/ha (Barnyard grass (BG) [10]): 60%; pest or weed control at 2241.7 g/ha (Turnip (TP) [11]): 80%; pest or weed control at 4483.4 g/ha (Turnip (TP) [11]): 40%; pest or weed control at 2241.7 g/ha (Turnip (TP) [12]): 100%; pest or weed control at 4483.4 g/ha (Turnip (TP) [12]): 100%; pest or weed control at 4483.4 g/ha (Johnson grass (JG) [13]): 100%; pest or weed control (Corn (CN) [14]): 100%; pest or weed control at 4483.4 g/ha (Corn (CN) [14]): 50%
CNC(=O)Nc1nnc(-c2cccc(C(F)(F)F)c2)s1 [Example 73] |  |  |  |  |  |  |  |  |  |  |  |  |  |  |  |  |  |  |  |  | pest or weed control at 4483.4 g/ha (Crabgrass (CG) [1]): 30%; pest or weed control at 4483.4 g/ha (Bean (BN) [2]): 40%; pest or weed control at 4483.4 g/ha (Cotton (CT) [3]): 50%; pest or weed control at 4483.4 g/ha (Crabgrass (CG) [4]): 0%; pest or weed control at 4483.4 g/ha (Corn (CN) [5]): 50%; pest or weed control at 4483.4 g/ha (Bean (BN) [6]): 80%; pest or weed control at 4483.4 g/ha (Johnson grass (JG) [7]): 0%; pest or weed control at 4483.4 g/ha (Cotton (CT) [8]): 100%; pest or weed control at 4483.4 g/ha (Barnyard grass (BG) [9]): 40%; pest or weed control at 4483.4 g/ha (Barnyard grass (BG) [10]): 0%; pest or weed control at 4483.4 g/ha (Turnip (TP) [11]): 60%; pest or weed control at 4483.4 g/ha (Turnip (TP) [12]): 60%; pest or weed control at 4483.4 g/ha (Johnson grass (JG) [13]): 50%; pest or weed control at 4483.4 g/ha (Corn (CN) [14]): 30%
CNC(=O)Nc1nnc(-c2ccccc2Cl)s1 [Example 74] |  |  |  |  |  |  | 70% | 80% | 50% | 20% | 0% | 100% | 0% | 100% | 40% | 30% | 50% | 80% | 40% | 40% | 
CNC(=O)Nc1nnc(-c2ccc(Cl)cc2Cl)s1 [Example 75] |  |  |  |  |  |  | 50% | 100% | 50% | 0% | 0% | 100% | 0% | 30% | 40% | 0% | 40% | 80% | 30% | 30% | 
CNC(=O)Nc1nnc(-c2ccc(C)cc2)s1 [Example 76] |  |  |  |  |  |  | 40% | 50% | 50% | 20% | 50% | 80% | 0% | 100% | 40% | 30% | 40% | 60% | 30% | 30% | 

From patent US4175081A, “5-Substituted thiadiazole ureas” (priority 1977, dated 1979)
